Laboratory results from patent US20220193072A1, “METHODS OF TREATING BREAST CANCER WITH TETRAHYDRONAPHTHALENE DERIVATIVES AS ESTROGEN RECEPTOR DEGRADER” (Arvinas Operations, Inc., priority 2020, published 2022).
Where “and” joins values, the source holds several entries; their conditions need not be identical. Identical values can stand only once. Like-named read-outs stand apart in the source and are kept apart here.

How the values were obtained:
[1] = system: cell lines expressing ESR1 variants Y537S and D538G; experiment: Growth of cell lines expressing ESR1 variants; type: cell-based
[2] = Phase I dose escalation safety; type: in vivo, human; settings: 30 mg/day cohort, n=3
Excerpt: A Phase I Clinical Trial with Compound (I-c) was undertaken. A traditional 3+3 dose escalation design was implemented. […] Dose increases were dependent on toxicities.
The key entry criteria for this trial were: ER+/HER2− advanced breast cancer; at least two prior endocrine therapies in any setting, and a CDK4/6 inhibitor; and up to three prior cytotoxic chemotherapy regimens.

ERα = molecular target: T1, ERα (Homo sapiens, UniProt P03372); experiment: In vivo ERα degradation in MCF7 xenograft tumors (immunoblot); design: species or system NOD/SCID mice; settings: for % ERα ↓: MCF7/estradiol model
T1 construct: robustly degrades ER in ER-positive breast cancer cell lines; endogenous in cells; host or cells: MCF7, T47D (cell culture); MCF7 and tamoxifen-resistant MCF7 xenograft tumours in mice
T1 sequence (P03372 1-595): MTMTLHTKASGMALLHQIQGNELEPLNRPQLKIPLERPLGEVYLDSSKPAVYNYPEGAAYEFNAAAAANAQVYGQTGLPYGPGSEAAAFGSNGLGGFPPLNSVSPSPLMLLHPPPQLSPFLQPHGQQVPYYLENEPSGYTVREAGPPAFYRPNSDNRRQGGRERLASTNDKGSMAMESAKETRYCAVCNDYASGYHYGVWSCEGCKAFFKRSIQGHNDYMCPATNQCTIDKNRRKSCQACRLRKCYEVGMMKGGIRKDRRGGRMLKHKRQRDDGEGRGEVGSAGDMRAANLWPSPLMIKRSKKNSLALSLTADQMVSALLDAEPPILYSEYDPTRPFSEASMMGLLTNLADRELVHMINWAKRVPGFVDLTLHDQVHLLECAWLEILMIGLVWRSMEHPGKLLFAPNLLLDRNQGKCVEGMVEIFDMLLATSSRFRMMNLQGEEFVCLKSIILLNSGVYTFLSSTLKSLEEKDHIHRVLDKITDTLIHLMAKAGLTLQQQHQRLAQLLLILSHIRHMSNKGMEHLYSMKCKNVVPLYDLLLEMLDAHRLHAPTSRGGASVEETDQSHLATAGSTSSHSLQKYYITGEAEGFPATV
Experimental: Approximately 18 hours after the final administration, mice were sacrificed, and MCF7 xenografts were harvested and lysed to determine ER levels by immunoblotting. […] Diet was supplemented with peanut butter to help maintain body weights.
Species: NOD/SCID female mice (Charles River, 6-7 weeks old upon arrival).
Animal handling: Axial mammary fat pad implantation of 5×10^6 MCF7 cells/200 per mouse (17β-estradiol 0.36 mg 90-day pellet implanted day before).
Dosing: Oral (gavage), once a day (QD) for 3 days (QD×3). Vehicle: 2% Tween80/PEG400 (‘PEG/Tween’).
Sampling: Terminal sacrifice was ˜18 hrs after last dose; tumors were harvested, divided and flash frozen. ERα levels were determined by immunoblotting.
Cell Lysis: flash frozen tumors were removed from −80° C. storage and placed on dry ice. RIPA lysis buffer and Halt protease inhibitors were used at 400 μl per tumor sample. A steel ball (5 mm) was placed in each sample for tissue disruption. Samples were lysed with TissueLyzer at 24 Hz for 4 minutes. The homogenization was stopped half way through the process and the block flipped over for the duration of the process. Steel beads were pulled out of the tubes and the lysates were spun down at 21,000×g for 15 minutes at 4° C. Lysates were then measured for total protein concentration by BCA (per manufacturer's protocol).
Detection of proteins by immunoblot: lysates were mixed with sample buffer and reducing agent (per manufacturer's protocol). Samples were denatured at 95° C. for 5 minutes in thermal cycler. Samples were cooled and spun down (5000×g; 1 minute) prior to loading on gel. Gels were loaded with 10 μg total protein per lane. Samples were loaded on 4-15% Criterion Tris/Glycine gels and run for 25 minutes at 250 constant volts in 1×Tris/Glycine/SDS buffer. Protein was transferred from gels to nitrocellulose with Bio-Rad Turbo on default setting. All blots were rinsed with distilled water and blocked for 1 hour at RT in 5% BSA in TBS-T (TBS with 0.1% Tween) on rocker. The blots were cut so that beta-actin and ERα can be detected from the same lane/sample.
Blots were incubated with primary antibody in 5% BSA in TBST (0.1%) overnight at 4° C. on rocker:
Blot was washed with TBST (0.1%) three times for 5 minutes on rocker at RT. Secondary antibody was added, and blots incubated at RT on rocker for 1 hour (1:18,000 anti-rabbit-HRP in TBS-T). Blots were washed 3 times in TBST (0.1%) for 5 minutes at RT on the rocker. Signal was developed with Pierce WestFemto maximum sensitivity substrate for 5 minutes and blots imaged on BioRad ChemiDoc.
Sampling: Tumors were measured twice weekly. Terminal sacrifice was ˜18 hr after last dose; tumors were harvested, divided, and flash frozen. ERα levels were determined by immunoblotting.
At study termination, the tumors were removed from the mice, and ERα levels were determined by immunoblotting the tumor homogenates.
Sampling: tumors were measured twice weekly. Terminal sacrifice was ˜18 hr after last dose; tumors were harvested, divided, and flash frozen. ERα levels were determined by immunoblotting.

[3] = Preclinical pharmacokinetics, oral once daily; settings: in vivo, total drug concentrations; for AUC(0-t): read-out: Mean AUC0-24
Excerpt: The pharmacokinetic results are shown below in Table 1.

O=C1CC[C@H](N2Cc3cc(N4CCN(CC5CCN(c6ccc([C@@H]7c8ccc(O)cc8CC[C@@H]7c7ccccc7)cc6)CC5)CC4)ccc3C2=O)C(=O)N1 [Compound (I-c), (3S)-3-[5-[4-[[1-[4-[(1R,2S)-6-hydroxy-2-phenyl-tetralin-1-yl]phenyl]-4-piperidyl]methyl]piperazin-1-yl]-1-oxo-isoindolin-2-yl]piperidine-2,6-dione]
growth of cell lines expressing ESR1 variants Y537S and D538G [1]: inhibits growth
dose limiting toxicity [2]: no dose limiting toxicity
treatment related adverse events [2]: no treatment related adverse events
reduction of tumor ERα levels vs vehicle (ERα; 10 mg/kg p.o. once daily x 3 days, ~18 h after last dose): up to 95%
reduction of tumor ERα levels vs vehicle (ERα; 3, 10 and 30 mg/kg daily oral, 28 days (all doses), at study termination): > 94% and > 90%
% ERα ↓ (ERα; 3 mg/kg): 95%
% ERα ↓ (ERα; 10 mg/kg): 97%
% ERα ↓ (ERα; 30 mg/kg): 94%
Cmax ([3]; 3 mg/kg oral once daily): 84 ng/mL
AUC(0-t) ([3]; 3 mg/kg oral once daily): 658 ng·h/mL
Cmax ([3]; 10 mg/kg oral once daily): 312 ng/mL
AUC(0-t) ([3]; 10 mg/kg oral once daily): 2540 ng·h/mL
Cmax ([3]; 30 mg/kg oral, single dose): 962 ng/mL
AUC(0-t) ([3]; 30 mg/kg oral, single dose): 5720 ng·h/mL
